“And” between values parts separate entries of the source, which are not always exact repeats. Equal values may be shown once.
Assays:
Type in all cases: ADME, organism-based
[1] = (§1) Mean pharmacokinetic parameters of Mycophenolic acid following single oral administration of Mycophenolic acid delayed-release tablets to adult or pediatric (age range 5 to 16 years) renal transplant patients on Cyclosporine, USP MODIFIED based immunosuppression; design: dose 450 mg/m-2, dose 1 g, dose 720 mg, route oral; conditions: human, in vivo
Homo sapiens [2] = assay: as §1; design: dose 450 mg/m-2, dose 1 g, dose 720 mg, route oral; conditions: in vivo
[3] = (§2) Mean pharmacokinetic parameters of Mycophenolic acid following multiple dose administration of 720 mg Mycophenolic acid delayed-release tablets to adult renal transplant patients on Cyclosporine, USP MODIFIED based immunosuppression; design: dose 720 mg, route oral; conditions: human, in vivo, po, 720 mg
Homo sapiens [4] = assay: as §2; design: dose 720 mg, route oral; conditions: in vivo, po
[5] = (§3) Pharmacokinetic parameters of Mycophenolic acid following administration of 360 to 2160 mg Mycophenolic acid delayed-release tablets to renal transplant patients on Cyclosporine, USP MODIFIED based immunosuppression.; conditions: human, in vivo, po
Homo sapiens [6] = assay: as §3; conditions: in vivo, po

Cmax [1]: 36300 ng/mL
Tmax [1]: 2.5 h
AUC ([1]; dosed compound id 90, dosed compound name MYCOPHENOLATE MOFETIL, regimen Single dose, tissue Plasma, read-out: AUC(0-48)): 42700 ng·h/mL
AUC ([1]; read-out: AUC(0 to inf)): 74300 ng·h/mL
AUC(0 to inf) (Homo sapiens [2]): 66.5 µg·h/mL
Cmax (Homo sapiens [2]): 26.1 µg/mL
Tmax (Homo sapiens [2]): 2 h
AUC(0-48) (Homo sapiens [2]; dosed compound id 90, dosed compound name MYCOPHENOLATE MOFETIL, regimen Single dose, tissue Plasma): 48.3 µg·h/mL
Tmax [3]: 2 h
AUC(0-12) (Homo sapiens [4]): 57.4 mcg.hr/mL [middle of 6 runs]
Cmax (Homo sapiens [4]): 26.2 mcg/mL [middle of 5 runs]
Tmax (Homo sapiens [4]): 1.5 h and 2.5 h and 1.8 h
CL/F [5]: 140 mL/min
Vd (Homo sapiens [6]): 112 L
Vss (Homo sapiens [6]): 54 L
Compound: COc1c(C)c2c(c(O)c1C/C=C(\C)CCC(=O)O)C(=O)OC2 [MYCOPHENOLIC ACID]

Source: ChEMBL document CHEMBL3832026
